Entries after “also recorded” stand apart in the source; their conditions may differ.
Columns and labels:
[1] = system: XccR binding to the luxXc box; assay: EMSA: effect of sugars on binding of XccR to the luxXc box; settings: XccR-MBP, increasing sugar concentrations (glucose 0.005-5 μM)
[2] = biological target: T1, XccR-SUMO (Xanthomonas campestris pv. campestris, UniProt B0RQF7); assay: MST binding of glucose to XccR-SUMO
T1 sequence (B0RQF7 1-272): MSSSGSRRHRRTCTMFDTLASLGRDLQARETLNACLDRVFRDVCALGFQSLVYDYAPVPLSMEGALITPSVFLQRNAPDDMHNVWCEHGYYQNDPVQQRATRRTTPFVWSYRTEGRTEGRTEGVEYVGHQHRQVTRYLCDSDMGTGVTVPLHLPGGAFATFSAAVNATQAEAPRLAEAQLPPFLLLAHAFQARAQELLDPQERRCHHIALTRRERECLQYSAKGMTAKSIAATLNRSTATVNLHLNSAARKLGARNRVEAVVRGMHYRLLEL

[3] = biological target: T2, TraR (Agrobacterium tumefaciens, UniProt P33905); assay: MST TraR–glucose interaction; assay type: binding; settings: Figure S7c
T2 sequence (P33905 1-234): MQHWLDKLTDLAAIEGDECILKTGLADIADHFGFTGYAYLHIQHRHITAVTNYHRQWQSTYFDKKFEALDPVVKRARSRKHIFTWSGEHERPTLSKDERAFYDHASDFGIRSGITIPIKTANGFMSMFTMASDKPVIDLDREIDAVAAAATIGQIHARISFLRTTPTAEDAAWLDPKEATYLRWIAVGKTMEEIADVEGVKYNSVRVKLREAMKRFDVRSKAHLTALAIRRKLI

[4] = biological target: T3, LasR (Pseudomonas aeruginosa, UniProt P25084); assay: MST LasR–glucose interaction; assay type: binding; settings: Figure S7d
T3 sequence (P25084 1-239): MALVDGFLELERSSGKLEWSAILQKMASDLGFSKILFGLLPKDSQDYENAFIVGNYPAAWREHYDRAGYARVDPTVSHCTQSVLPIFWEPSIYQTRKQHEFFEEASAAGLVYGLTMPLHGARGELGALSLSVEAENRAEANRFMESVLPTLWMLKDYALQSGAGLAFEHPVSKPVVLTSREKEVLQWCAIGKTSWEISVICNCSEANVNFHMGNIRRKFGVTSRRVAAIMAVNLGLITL

[5] = biological target: T4, XccR-MBP (Xanthomonas campestris pv. campestris, UniProt B0RQF7); assay: Microscale thermophoresis
T4 sequence (B0RQF7 1-272): T1 sequence (B0RQF7 1-272)

[6] = biological target: T4, XccR-MBP; assay: Isothermal titration calorimetry of XccR-MBP with glucose; assay type: binding; settings: XccR-MBP 10 μM titrated with 100 μM glucose
[7] = system: pip promoter (Xcc 8008, pip-GUS reporter); assay type: cell-based, Xanthomonas campestris pv. campestris
[8] = system: pip promoter (Xcc 8008 reporter strain); assay type: in vivo, Xanthomonas campestris pv. campestris in Arabidopsis; settings: Atsweet2‐3‐2 and Atsweet15‐4‐7 mutant plants, bacterial suspension supplemented with glucose before infection

| Compound | Effect on binding of XccR to the luxXc box [1] | GUS activity driven by the pip promoter [7] | further results |
| --- | --- | --- | --- |
| O=C[C@H](O)[C@@H](O)[C@H](O)[C@H](O)COP(=O)(O)O [glucose 6‐phosphate, D‐glucose 6‐phosphate] | did not enhance | – | – |
| OC[C@H]1OC(O)[C@H](O)[C@@H](O)[C@@H]1O (stereo partly shown) [glucose, D‐glucose] | enhanced | increase; also recorded: promoted | Kd [2]: 242 nM; TraR–glucose interaction [3]: did not interact; LasR–glucose binding [4]: did not bind; Kd [5]: 252 nM; Binding of XccR with glucose by ITC [6]: supported by the ITC results; pip promoter-driven GUS activity in planta [8]: restored to the wild‐type level |
| O=CC[C@@H](O)[C@H](O)[C@H](O)CO [2‐deoxyglucose, 2‐deoxy‐D‐glucose, reference compound] | enhanced | promoted | – |
| OC[C@H]1O[C@@](CO)(O[C@H]2O[C@H](CO)[C@@H](O)[C@H](O)[C@H]2O)[C@@H](O)[C@@H]1O [sucrose] | did not enhance | – | – |
| O=C(CO)[C@@H](O)[C@H](O)[C@H](O)CO [fructose] | did not enhance | – | – |

Reference: publication PMC10013830 (Molecular Plant Pathology, 2023)
